Measured values taken from patent publication US20060099216A1, “Peptide delivery” (Biovation Limited, priority 1994, published 2006).

Tested on: mouse Sp2/0 cells
Experiment: CTL assay: 51Cr release from target Sp2/0 cells treated with antibody fragments or peptide, with p53 peptide-specific CTLs
Type: cell-based
Settings: Sp2/0 target cells, treated 4 hours at 37° C. with antibody fragment dilutions or 10 μg/ml peptide

## KYICNSSCM (p53 CTL reactive peptide) [p53 peptide only]
effector:target 5:1
  % Specific 51Cr Release at E/T Ratio 5:1: 41%
effector:target 10:1
  % Specific 51Cr Release at E/T Ratio 10:1: 57%
effector:target 20:1
  % Specific 51Cr Release at E/T Ratio 20:1: 46%
